Assay results as given in article PMC12684325, “SiR‐XActin: A Fluorescent Probe for Imaging Actin Dynamics in Live Cells” (Angewandte Chemie (International Ed. in English), 2025).

Tested on: T1, F-actin
T1 construct: gene ACTB; F-actin filaments
Experiment: microscopy-based apparent affinity measurement for F-actin (fluorescent probe; fixed-cell staining)

| Substance | Kd [nM] |
| --- | --- |
| SiR-XActin [compound 8] | 557 |
| SiR-actin [compound 2] | 6 |
